Data taken from patent publication US7517858B1, “Prodrugs of pharmaceuticals with improved bioavailability” (The Regents of the University of California, priority 1995, dated 2009).
Entries after “also recorded” stand apart in the source; their conditions may differ.

Tests used:
[1] = system: human cytomegalovirus (HCMV); assay: Human cytomegalovirus (HCMV) antiviral susceptibility assay (HCMV DNA hybridization in MRC-5 cells); type: cell-based; conditions: for IC50: HCMV-infected MRC-5 human lung fibroblasts, HCMV DNA after 5 days, mean ± SD (n); for antiviral activity compared in words: comparison with PFA / B-PFA
Procedure: Subconfluent MRC-5 cells in 24-well culture dishes were pretreated for 24 hours with various concentrations of drug in MEM medium containing 2% FBS and antibiotics. The media was removed and virus added at a dilution that will result in a 3-4+ cytopathic effect (CPE) in the no-drug wells in five days. This was absorbed for 1 hour at 37° C., aspirated and replaced with the drug dilutions. After five days of incubation HCMV DNA was quantified in triplicate by nucleic acid hybridization using a CMV AntiviraL Susceptibility Test Kit from Diagnostic Hybrids, Inc. (Athens, Ohio). The media was removed and cells lysed according to the manufacturer's instructions.
After absorption of the lysate, the Hybriwix™ filters were hybridized overnight at 60° C. The Hybriwix™ were washed for 30 minutes at 73° C. and counted in a gamma counter. The results are expressed as HCMV DNA as a percentage of the untreated HCMV-infected control cells.

[2] = Tissue distribution 24 h after oral administration of 14C-PFA lipid prodrugs to mice; type: in vivo; conditions: oral gavage 20 mg/kg in liposomes, 14C radioactivity (FIG. 2)
Procedure: 1-O-Octadecyl-sn-glycero-3-PFA[^14C] and 1-O-octadecyl-2-O-methyl-sn-glycero-3-PFA[^14C] (30 microcuries/micromole) were dried with dioleoylphosphatidylcholine/cholesterol/drug in a molar ratio of 60/30/10 in a nitrogen stream, lyophilized overnight and isotonic sorbitol was added. After vortexing and warming, the vessel was sonicated at maximum output in a Heat Systems cup and horn sonicator for one hour. The resulting liposome preparation was filtered through a 0.2 micron filter and administered to mice by oral gavage in a dose of 20 mg/kg of the respective PFA lipid prodrugs. After 24 hours the animals were sacrificed and tissues removed, blotted dry, weighed and homogenized. Aliquots were counted and the amount of radioactivity determined. The results are expressed as nanomoles of lipid prodrug PFA[^14C] per gm tissue.

HSV-1 virus = assay: HSV antiviral susceptibility assay (HSV DNA hybridization in MRC-5 cells); type: cell-based, human herpes simplex virus 1; conditions: comparison with PFA / B-PFA
Procedure: Subconfluent MRC-5 cells in 24-well culture dishes were inoculated by removing the media and adding HSV-1 virus at a dilution that will result in a 3-4+CPE in the no-drug well in 20-24 hours. This was absorbed for 1 hour at 37° C., aspirated and replaced with various concentrations of drugs in MEM medium containing 2% FBS and antibiotics. After approximately 24 hours of incubation, HSV DNA was quantified in triplicate by nucleic acid hybridization using a HSV Antiviral Susceptibility Test Kit from Diagnostic Hybrids, Inc. (Athens, Ohio). The media was removed and cells lysed according to the manufacturer's instructions. After absorption of the lysate, the Hybriwix™ filters were hybridized overnight at 60° C. The Hybriwix™ were washed for 30 minutes at 73° C. and counted in a gamma counter. The results are expressed as a percentage of the untreated HSV-infected control cells.

[3] = system: human immunodeficiency virus-1; assay: Plaque reduction assay for HIV-1 replication in HT4-6C cells; type: cell-based; conditions: comparison with PFA / B-PFA / BB-PFA
Procedure: HT4-6C cells and plaque reduction assay, CD4-expressing HeLa cells, HT4-6C cells (Chesebro, B. and K. Wehrly (1988) J. Virol. 62:3779-3788), were obtained from Bruce Chesebro, Hamilton, Mont. The effect of antiviral compounds on HIV replication was measured by a plaque reduction assay. Briefly, monolayers of HT4-6C cells were infected with 100 to 300 PFU of virus per well in 24-well microdilution plates. Various concentrations of drug were added to the culture medium, Dulbecco's Modified Eagle Medium containing 5% fetal bovine serum and antibiotics, as noted above. After 3 days at 37° C., the monolayers were fixed with 10% formaldehyde solution in phosphate-buffered saline and stained with 0.25% crystal violet to visualize virus plaques (Larder, B. et al. (1989) Science 243:1731-1734). Antiviral activity was assessed as the percentage of control Plaques measured in drug-treated samples.

[4] = system: Rauscher leukemia virus complex (RLV); assay: Treatment of Rauscher leukemia virus-infected mice (spleen weight); type: in vivo; conditions: for effective doses (ED50): RLV-infected BALB/C mice, 21 days oral, prodrug by gavage once a day, AZT in drinking water, spleen weight day 23
Source text: 1-O-Octadecyl-sn-glycero-3-phospho-AZT was compared to free AZT in treating mice infected with Rauscher murine leukemia virus (RLV). RLV is a murine retrovirus, and RLV-infected mice are useful as a model system for evaluating therapeutic effectiveness of candidate anti-AIDS drugs against retrovirus induced disease in vivo. […] Effective antiviral agents inhibit the splenomegaly, and a reduction in organ weight correlates with the elimination of virus (Ruprecht, R., et al., Nature 323:467-469 (1986)). […] The closest practical approach to optimum administration is the intake of AZT in drinking water.
Female BALB/C mice were infected with 1×10^4 plaque-forming units (PFU) of Rauscher leukemia virus complex (RLV) on day 0. Control animals were injected with saline. Beginning on day 2, groups of the infected mice as indicated in FIG. 1 were treated with AZT at doses from about 11.0 mg/kg/day to 15.0 mg/kg/day for 21 days either by offering AZT in drinking water or by gavaging with 1-O-octadecyl-sn-glycero-3-P-AZT once a day. On day 23 post-inoculation, the mice in both treatment protocols were sacrificed, and the spleen weights of the animals were determined. The mean spleen weights, indicating relative level of virus infection, for each dose level in the two protocols, are represented in the bar graphs of FIG. 1.

SMILES	IC50 [1]	antiviral activity compared in words ([1]; HCMV)	tissue levels of drug [2]	effective doses (ED50) [4]	also measured
CCCCCCCCCCCCCCCCCCOCC(COP(=O)(O)C(=O)O)(OC)OC [ODDMOP-PFA, 1-O-octadecyl-2,2-dimethoxypropane-3-phosphonoformate]	0.22 ± 0.14 µM	substantially more active	–	–	FOLD INCREASE IN ACTIVITY ([1]; versus PFA, HCMV): 209 fold
CCCCCCCCCCCCCCCCCCOC[C@H](COP(=O)(O)C(=O)O)OCc1ccccc1 [BB-PFA, 1-O-octadecyl-2-O-benzyl-sn-glycero-3-phosphonoformate]	0.54 ± 0.65 µM	equivalent in antiviral activity to B-PFA	–	–	–
CCCCCCCCCCCCCCCCCCOC[C@@H](O)COP(=O)(O)C(=O)O [B-PFA, 1-O-octadecyl-sn-glycero-3-phosphonoformate]	–	–	lower levels of drug in most tissues studied including liver, spleen, jejunum and ileum	–	–
CCCCCCCCCCCCCCCCCCOC[C@H](COP(=O)(O)C(=O)O)OC [MB-PFA, 1-O-octadecyl-2-O-methyl-sn-glycero-3-phosphonoformate]	–	equivalent in antiviral activity to B-PFA	higher tissue levels of drug were observed in liver, spleen, lung, brain, kidney and lymph node	–	antiviral activity compared in words (HSV-1 virus): more active than B-PFA; antiviral activity compared in words [3]: significantly more active than B-PFA and BB-PFA; also recorded: more active than B-PFA to a statistically significant degree; drug levels in the small intestine [2]: lower in the small intestine
Cc1cn([C@H]2C[C@H](N=[N+]=[N-])[C@@H](CO)O2)c(=O)[nH]c1=O [AZT, 3′-azido-3′-deoxythymidine, reference compound]	–	–	–	comparable	–
CCCCCCCCCCCCCCCCCCOC[C@@H](O)COP(=O)(O)OC[C@H]1O[C@@H](n2cc(C)c(=O)[nH]c2=O)C[C@@H]1N=[N+]=[N-] [1-O-octadecyl-sn-glycero-3-P-AZT, 1-O-Octadecyl-sn-glycero-3-phospho-3′-azido-3′-deoxythymidine]	–	–	–	comparable	inhibition of splenomegaly, effectiveness ([4]; RLV-infected mice, once a day gavage versus free AZT in drinking water (FIG. 1)): as effective, in comparable doses, as virtually continuous free AZT administration
